Structures can show the parent of a compound that is named as a salt. Where two headings read alike, the source gives them in different places.
Biological target: T1, 5HT2 Receptors (Rattus norvegicus, UniProt P14842)
T1 construct: from tissue; host or cells: rat external jugular vein (isolated, male Wistar)
Experiment: Apparent antagonist dissociation constant (KB) at 5HT2 receptors, serotonin-induced contraction of isolated rat external jugular vein
Assay type: cell-based, rat (male Wistar)
Excerpt: Male Wistar rats (about 150-300 gram weight) were killed and their external jugular veins and thoracic aortas dissected free of connective tissue, cannulated in situ and placed in a modified Krebs' bicarbonate buffer in a suitable tissue bath. Two L-shaped 30-gauge stainless-steel hypodermic needles were inserted in each cannula and the dissected vessels gently pushed onto the needles. One needle was attached with thread to a stationary glass rod and the other to the transducer. [The procedure employed was that described by Hooker, Calkins and Fleisch, Blood Vessels, 14, 1, (1977) for use with circular smooth muscle preparations.]
The modified Krebs' bicarbonate buffer was composed of the following (concentrations in millimoles): sodium chloride, 118.2; potassium chloride, 4.6; calcium chloride dihydrate, 1.6; potassium dihydrogenphosphate, 1.2; magnesium sulfate, 1.2; dextrose, 10.0; sodium bicarbonate, 24.8; and water q.s. to 1000 g. The tissue baths were maintained at 37° C. and were aerated with 95% oxygen: 5% carbon dioxide (v:v). An initial optimum resting force of 1 g and 4 g was applied to the jugular vein and aorta, respectively. Isometric contractions were recorded as changes in grams of force on a Beckman Dynograph with Statham UC-3 transducers and microscale accessory attachment. Tissues were allowed to equilibrate 1 to 2 hours before exposure to drugs. Control responses to serotonin in the jugular vein and to norepinephrine in the aorta were obtained. The vessels were then incubated with appropriate concentrations of the test compound for one hour. Responses to serotonin or to norepinephrine were then repeated in the presence of the test compound. Contraction to serotonin was evaluated in the jugular vein since this tissue produces marked responses to serotonin in the absence of alpha receptors. See Cohen and Wiley, J. Pharm. Exp. Ther., 205, 400 (1978). Alpha receptor antagonist activity was evaluated in the aorta.
Apparent antagonist dissociation constants were determined for each concentration of the test compound according to the following equation: [formula] wherein [B] is the concentration of the antagonist and the dose ratio is the ED50 of the agonist in the presence of the antagonist divided by the control ED50. […] The -log KB values obtained for representative sensitive compounds of this invention and are given below in Table 1. ln the Table, column I provides the Example Number of the compound evaluated in the screen; columns 2-6, the identity of the compound evaluated in the screen when taken with the structure provided; and column 7, the apparent dissociation constant for the test compound.

[1] = rat external jugular vein, antagonism of serotonin contraction, 1 h incubation, 37° C, read-out: 5HT2 -Log KB (apparent dissociation constant) (converted)

T1 sequence (P14842 whole entry): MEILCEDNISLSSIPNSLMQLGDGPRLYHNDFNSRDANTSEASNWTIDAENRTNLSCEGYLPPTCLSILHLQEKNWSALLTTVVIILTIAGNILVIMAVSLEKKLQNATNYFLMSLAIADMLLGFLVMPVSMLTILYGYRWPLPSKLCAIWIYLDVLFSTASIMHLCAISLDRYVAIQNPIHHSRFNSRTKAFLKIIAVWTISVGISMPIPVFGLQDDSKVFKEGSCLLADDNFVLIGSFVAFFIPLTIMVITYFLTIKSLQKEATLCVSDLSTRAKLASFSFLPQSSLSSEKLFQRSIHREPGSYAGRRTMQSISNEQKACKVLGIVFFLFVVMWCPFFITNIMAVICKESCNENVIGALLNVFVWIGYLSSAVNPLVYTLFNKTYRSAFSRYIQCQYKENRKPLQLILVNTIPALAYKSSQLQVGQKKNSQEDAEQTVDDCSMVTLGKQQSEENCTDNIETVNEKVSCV

Compound	Kb	Kb [1]
CC(C)n1cc2c3c(cccc31)[C@H]1C[C@@H](C(=O)NC3CCCC3)CN(C)[C@@H]1C2 [Example 9, (8β)-N-Cyclopentyl-1-isopropyl-6-methylergoline-8-carboxamide]	46.8 pM	–
CO[C@H]1CC[C@H](NC(=O)[C@@H]2C[C@@H]3c4cccc5c4c(cn5C(C)C)C[C@H]3N(C)C2)CC1 (relative stereo) [Example 5, (8β)-trans-N-(4-Methoxycyclohexyl)-1-isopropyl-6-methylergoline-8-carboxamide]	186 pM	–
CCn1cc2c3c(cccc31)[C@H]1C[C@@H](C(=O)N[C@H]3CC[C@@H](OC)CC3)CN(C)[C@@H]1C2 [Example 7, (8β)-cis-N-(4-Methoxycyclohexyl)-1-ethyl-6-methylergoline-8-carboxamide maleate]	229 pM	–
CC1CCC(NC(=O)[C@@H]2C[C@@H]3c4cccc5c4c(cn5C(C)C)C[C@H]3N(C)C2)CC1 (stereo partly drawn) [Example 13, (8β)-N-(4-Methylcyclohexyl)-1-isopropyl-6-methylergoline-8-carboxamide]	6460 pM	–
CO[C@H]1CC[C@@H](NC(=O)[C@@H]2C[C@@H]3c4cccc5c4c(cn5C)C[C@H]3N(C)C2)CC1 [Example 6, (8β)-cis-N-(4-Methoxycyclohexyl)-1,6-dimethylergoline-8-carboxamide maleate]	269 pM	–
CN1C[C@H](C(=O)NC2CCCCC2)C[C@@H]2c3cccc4c3c(cn4C)C[C@H]21 [Example 8, (8β)-N-Cyclohexyl-1,6-dimethylergoline-8carboxamide]	200 pM	–
CC(C)n1cc2c3c(cccc31)[C@H]1C[C@@H](C(=O)N(C)C3CCCCC3)CN(C)[C@@H]1C2 [Example 2, (8β-N-Cyclohexyl-N-methyl-1-isopropyl-6-methylergoline-8-carboxamide maleate]	–	1000 pM
CC(C)n1cc2c3c(cccc31)[C@H]1C[C@@H](C(=O)NC3CCCCCC3)CN(C)[C@@H]1C2 [Example 12, (8β)-N-Cycloheptyl-1-isopropyl-6-methylergoline-8-carboxamide]	1050 pM	–
CCn1cc2c3c(cccc31)[C@H]1C[C@@H](C(=O)NC3CCCCC3)CN(C)[C@@H]1C2 [Example 10, (8β)-N-Cyclohexyl-1-ethyl-6-methylergoline-8-carboxamide]	562 pM	–
CC(C)n1cc2c3c(cccc31)[C@H]1C[C@@H](C(=O)N[C@H]3CC[C@H](O)CC3)CN(C)[C@@H]1C2 [Example 11, (8β)-trans-N-(4-Hydroxycyclohexyl)-1-isopropyl-methylergoline-8-carboxamide]	–	6460 pM
CO[C@H]1CC[C@@H](NC(=O)[C@@H]2C[C@@H]3c4cccc5c4c(cn5C(C)C)C[C@H]3N(C)C2)CC1 [Example 4, (8β)-cis-N-(4-Methoxycyclohexyl)-1-isopropyl-methylergoline-8-carboxamide]	–	186 pM
CCCN1C[C@H](C(=O)NC2CCCCC2)C[C@@H]2c3cccc4c3c(cn4C(C)C)C[C@H]21 [Example 3, (8β)-N-Cyclohexyl-1-isopropyl-6-n-propylergoline-8-carboxamide]	794 pM	–
CC(C)n1cc2c3c(cccc31)[C@H]1C[C@@H](C(=O)NC3CCCCC3O)CN(C)[C@@H]1C2 (stereo partly drawn) [Example 14, (8β)-N-(2-Hydroxycyclohexyl)-1-isopropyl-6-methylergoline-8-carboxamide]	27.5 pM	–

Source: patent US4931447A, “Cycloalkylamides of (8β)-1-alkyl-6-(substituted) ergolines” (Eli Lilly and Company, priority 1989, dated 1990)
